# Experiments:
# human COX-1 = target: T1, human COX-1 (Homo sapiens, UniProt P23219); experiment: Inhibition of PGE2 release in COS cells stably transfected with human COX-1; type: cell-based; details: COS cells transfected with human COX-1, 30 μM arachidonic acid
# T1 construct: expressed in transfected cells; host or cells: COS cells (stably transfected)
# Protocol: 24 Hours prior to experiment, COS cells were transferred from the 175 cm^2 flasks in which they were grown, onto 24-well cell culture plates using the following procedure. The incubation medium (Dulbecco's modified eagles medium (DMEM) supplemented with heat-inactivated foetal calf serum (10% v/v), penicillin (100 IU/ml), streptomycin (100 μg/ml) and genebcin (600 μg/ml)) was removed from a flask of confluent cells (1 flask at confluency contains approximately lx107 cells). 10 mI of phosphate buffered saline (PBS) was added to the flask to wash the cells. Having discarded the PBS, cells were then rinsed in 10 ml trypsin for 20 seconds, after which the trypsin was removed and the flask placed in an incubator (37°) for 1-2 minutes unbil cells became detached from the flask. The flask was then removed from the incubator and cells resuspended in 10 ml of fresh incubation medium. The contents of the flask was transferred to a 250 ml sterile container and the volume of incubation medium subsequently made up to 100 ml. […] If more than 1 flask of cells were required, the cells from the individual flasks were combined before being dispensed into the 24-well plates.
# Following the overnight incubation, the incubation medium was completely removed from the 24-well cell culture plates and replaced with 250 μl fresh DMEM (37° C.). The test compounds were made up to 250× the required test concentration in DMSO and were added to the wells in a volume of 1 μl. […] Plates were then incubated for a further 15 minutes, after which the incubation medium was removed from each well of the plates and stored at −20° C., prior to determination of prostaglandin E2 (PGE2) levels using enzyme immunoassay. […] The selectivity ratio of inhibition of COX-1 versus COX-2 was calculated by comparing respective IC50 values.
# human COX-2 = target: T2, human COX-2 (Homo sapiens, UniProt P35354); experiment: Inhibition of PGE2 release in COS cells stably transfected with human COX-2; type: cell-based; details: COS cells transfected with human COX-2, 30 μM arachidonic acid
# T2 construct: expressed in transfected cells; host or cells: COS cells (stably transfected)
# T2 sequence (P35354 18-604): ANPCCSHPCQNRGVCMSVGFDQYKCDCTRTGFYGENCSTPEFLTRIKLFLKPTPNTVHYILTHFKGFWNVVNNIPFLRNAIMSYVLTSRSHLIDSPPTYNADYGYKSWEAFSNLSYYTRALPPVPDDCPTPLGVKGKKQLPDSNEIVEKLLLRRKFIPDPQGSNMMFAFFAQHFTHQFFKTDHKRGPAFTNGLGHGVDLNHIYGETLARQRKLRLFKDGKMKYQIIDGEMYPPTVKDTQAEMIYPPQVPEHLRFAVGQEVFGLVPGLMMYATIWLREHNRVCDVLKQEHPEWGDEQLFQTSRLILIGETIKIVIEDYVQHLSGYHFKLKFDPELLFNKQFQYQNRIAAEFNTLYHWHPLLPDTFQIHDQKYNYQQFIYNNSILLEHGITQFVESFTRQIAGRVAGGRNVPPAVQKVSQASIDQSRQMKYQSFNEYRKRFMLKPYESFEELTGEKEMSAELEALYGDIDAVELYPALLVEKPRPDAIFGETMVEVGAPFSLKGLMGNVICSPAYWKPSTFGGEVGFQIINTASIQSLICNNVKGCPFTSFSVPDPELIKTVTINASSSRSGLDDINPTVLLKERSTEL
# microsomal h-COX2 = target: T3, microsomal h-COX2 (Homo sapiens, UniProt P35354); experiment: Microsomal assay, h-COX2 preparation from baculovirus infected SF9 cells; type: biochemical; details: stated in text under the microsomal assay; read-out: IC50 values for inhibition of COX-2
# T3 construct: made in house; host or cells: baculovirus infected SF9 cells (microsomal preparation)
# T3 sequence (P35354 18-604): T2 sequence (P35354 18-604)
# Protocol: Inhibitory activity against microsomal h-COX2 was assessed against a microsomal preparation from baculovirus infected SF9 cells. An aliquot of microsomal preparation was thawed slowly on ice and a 1/40,000 dilution prepared from it into the assay buffer (sterile water, degassed with argon containing 100 mM HEPES (pH 7.4), 10 mM EDTA (pH7.4), 1 mM phenol, 1 mM reduced glutathione, 20 mg/ml gelatin and 0.001 mM Hematin). Once diluted the enzyme solution was then sonicated for 5 seconds (Branson sonicator, setting 4, 1 cm tip) to ensure a homogeneous suspension. […] Plates were then mixed and incubated at room temperature for 1 hour. Following the incubation period, 40 μl of 0.5 μM arachidonic acid was added to each well to give a final concentration of 0.1 μM. Plates were then mixed and incubated for exactly 10 minutes (room temperature) prior to addition of 25 μl 1M HCl (hydrochloric acid) to each well to stop the reaction. 25 μl of 1M NaOH (sodium hydroxide) was then added to each well to neutralise the solution prior to determination of PGE2 levels by enzyme immunoassay (EIA).
# T1 sequence (P23219 24-599): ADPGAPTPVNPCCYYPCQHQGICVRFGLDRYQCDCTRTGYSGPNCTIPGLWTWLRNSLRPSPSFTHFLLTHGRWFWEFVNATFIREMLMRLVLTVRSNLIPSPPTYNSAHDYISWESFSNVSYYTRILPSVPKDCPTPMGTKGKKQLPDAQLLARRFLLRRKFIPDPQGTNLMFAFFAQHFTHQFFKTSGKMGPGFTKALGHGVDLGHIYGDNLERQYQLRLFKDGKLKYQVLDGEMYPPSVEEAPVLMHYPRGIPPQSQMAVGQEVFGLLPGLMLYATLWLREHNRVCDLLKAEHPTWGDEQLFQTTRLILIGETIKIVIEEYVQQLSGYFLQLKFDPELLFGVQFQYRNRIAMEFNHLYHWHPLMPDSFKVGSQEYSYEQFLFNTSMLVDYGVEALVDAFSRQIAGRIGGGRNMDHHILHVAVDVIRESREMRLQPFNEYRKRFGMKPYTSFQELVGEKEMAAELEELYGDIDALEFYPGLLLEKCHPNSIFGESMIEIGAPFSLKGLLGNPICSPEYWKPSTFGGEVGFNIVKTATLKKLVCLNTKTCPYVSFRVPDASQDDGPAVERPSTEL
IC50 (human COX-1),IC50 (human COX-2),IC50 (microsomal h-COX2),SMILES
81300 nM,< 1 nM,–,"CS(=O)(=O)c1ccc(-c2cc(C(F)(F)F)nc(Oc3ccc(F)cc3)n2)cc1 [Example 1.1, 2-(4-Fluorophenoxy)-4-[4-(methylsulfonyl)phenyl]-6-(tiifluoromethyl)pyrimidine]"
2920 nM,4 nM,–,COc1ccc(Oc2nc(-c3ccc(S(C)(=O)=O)cc3)cc(C(F)(F)F)n2)cc1 [Example 1.3]
–,–,≤ 500 nM,"CS(=O)(=O)c1ccc(-c2cc(C(F)(F)F)cc(NC3CCCCC3)n2)cc1 [Example 3.1, N-cyclohexyl-4-(trifluoromethyl)-6-[4-(methylsulfonyl)phenyl]pyridine-2-amine]"
–,–,≤ 500 nM,"Cc1cc(NCc2cnn(C)c2)nc(-c2ccc(S(C)(=O)=O)cc2)c1 [Example 3.3, 4-methyl-N-[(1-methyl-1H-pyrazol-4-yl)methyl]-6-[4-(methylsulfonyl)phenyl]-2-pyridinamine]"

# Further lines, the molecule ahead of its results:
SMILES,IC50 (human COX-1),IC50 (human COX-2),IC50 (microsomal h-COX2)
"COc1ccc(-c2nn3ncccc3c2-c2ccc(S(C)(=O)=O)cc2)cc1 [2.2(ii), 3-(4-Methanesulfonyl-phenyl)-2-(4-methoxy-phenyl)-pyrazolo[1,5-b]pyridazine]",3880 nM,–,–
"CCOc1ccc(-c2nn3ncccc3c2-c2ccc(S(C)(=O)=O)cc2)cc1 [2.3(ii), 2-(4-Ethoxy-phenyl)-3-(4-methanesulfonyl-phenyl)-pyrazolo[1,5-b]pyridazine]",–,3 nM,–
"CS(=O)(=O)c1ccc(-c2c(-c3ccc(F)cc3)nn3nc(S(C)(=O)=O)ccc23)cc1 [2.4(iii), 2-(4-Fluoro-phenyl)-6-methanesulfonyl-3-(4-methanesulfonyl-phenyl)-pyrazolo[1,5-b]pyridazine]",–,370 nM,–
"CCOc1ccc(-c2nn3ncccc3c2-c2ccc(S(N)(=O)=O)cc2)cc1 [2.6(iv), 4-[2-(4-Ethoxy-phenyl)-pyrazolo[1,5-b]pyridazin-3-yl]-benzenesulfonamide]",3830 nM,0.44 nM,–

# — patent US20070142411A1, “Use of cyclooxygenase-2 selective inhibitors for the treatment of schizophrenic disorders” (priority 2003, published 2007)
